The test addresses T1, β-catenin/Tcf protein-protein interaction (Homo sapiens, UniProt P35222).
T1 construct: Wild-type β-catenin (residues 138-781) were cloned into a pET-28b vector; 6×histidine (C); made in house; host or cells: E. coli BL21 DE3
T1 sequence (P35222 138-781): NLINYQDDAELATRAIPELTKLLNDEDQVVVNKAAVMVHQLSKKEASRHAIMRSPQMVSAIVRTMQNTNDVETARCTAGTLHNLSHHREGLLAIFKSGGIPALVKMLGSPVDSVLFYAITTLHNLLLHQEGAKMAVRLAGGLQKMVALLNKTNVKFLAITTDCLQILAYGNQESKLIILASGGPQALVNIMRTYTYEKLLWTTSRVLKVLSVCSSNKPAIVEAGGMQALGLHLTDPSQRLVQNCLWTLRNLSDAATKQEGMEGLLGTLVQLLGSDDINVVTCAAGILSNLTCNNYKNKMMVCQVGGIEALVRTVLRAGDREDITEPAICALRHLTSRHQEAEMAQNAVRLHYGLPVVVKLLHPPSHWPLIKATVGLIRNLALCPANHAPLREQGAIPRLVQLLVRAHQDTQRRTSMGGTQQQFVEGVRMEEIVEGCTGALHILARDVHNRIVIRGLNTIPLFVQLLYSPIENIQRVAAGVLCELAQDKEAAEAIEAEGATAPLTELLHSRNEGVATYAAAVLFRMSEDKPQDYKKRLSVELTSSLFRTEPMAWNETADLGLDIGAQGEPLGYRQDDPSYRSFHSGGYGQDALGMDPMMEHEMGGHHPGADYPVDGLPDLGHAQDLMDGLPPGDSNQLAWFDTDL
Description: FP competitive inhibition assay. Type of test: binding. A digest of the protocol:
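His-tagged human β-catenin (residues 138-781, E. coli-expressed) at 10 nM with 2.5 nM fluorescein-labeled Tcf4 (7-51) in PBS-type buffer with bovine γ-globulin and 0.01% Triton X-100. Compounds added, 1.5 h at 4 °C, 1% DMSO, before fluorescence polarization read. IC50 by nonlinear fit; Ki derived from IC50.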

Structures are written as SMILES. Read-outs that look alike come from different tables or passages of the source.

Usually Ki stands for the dissociation constant of the complex between target and ligand, obtained from inhibition or displacement. As for `O=C(O)c1ccc2c(c1)c(CCc1ccc(Cl)cc1)c(CCc1nc3ccccc3s1)n2CCc1nn[nH]n1` [Compound 27, 1-(2-(2H-tetrazol-5-yl)ethyl)-2-(2-(benzo[d]thiazol-2-yl)ethyl)-3-(4-chlorophenethyl)-1H-indole-5-carboxylic acid], the Ki is, setting by setting: (Assay 1, mean ± SD (n = 3), read-out: Ki ± SD, Assay 1) 3.3 ± 0.64 µM; (Assay 2, mean ± SD (n = 3), read-out: Ki ± SD, Assay 2) 1.3 ± 0.38 µM; (Assay 3, mean ± SD (n = 3), read-out: Ki ± SD, Assay 3) 5.6 ± 1.8 µM.

These data come from US11530186B2, “Inhibitors for the β-catenin / T-cell factor protein-protein interaction” (H. LEE MOFFITT CANCER CENTER AND RESEARCH INSTITUTE, INC., priority 2018, dated 2022).
